Test results reported in BindingDB's records for doi:10.1016/j.bmcl.2009.01.068 (Methylgene, 2009).

Experiments:
[1] = Inhibition of c-Met-mediated migration in HGF-stimulated human A549 cells by wound healing assay
[2] = Inhibition of c-Met-mediated scattering in HGF-stimulated human DU145 cells

- IC50 [1]: 240 nM
- IC50 [2]: 80 nM
SMILES: CCn1cnc(-c2cc3nccc(Oc4ccc(NC(=O)N5CCN(c6ccc(F)cc6)C5=O)cc4F)c3s2)c1 [N-(4-(2-(1-ethyl-1H-imidazol-4-yl)thieno[3,2-b]pyridin-7-yloxy)-3-fluorophenyl)-3-(4-fluorophenyl)-2-oxoimidazolidine-1-carboxamide]
